Measured values taken from PubChem BioAssay AID276 (DTP/NCI, 2004).
Values joined by “and” are separate entries in the source; they are usually repeats but may differ in a detail not shown here. Identical values can stand only once. Inconclusive results and toxic doses are left out. How the source made its calls: active means survival T/C of 150% or more; inactive means T/C below 125% in these data.

System: B6C3F1 mice, Lewis lung carcinoma iv, survival T/C
Assay: NCI In Vivo Anticancer Drug Screen. Data for tumor model Lewis Lung Carcinoma (intravenous) in B6C3F1 mice
Details: endpoint: median survival time, schedule: Q01DX009 (ip), higher = longer survival
How it was run: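 Mice carrying transplanted tumors received test compound; survival in the treated group was divided by that of the vehicle-treated control group to give the T/C value.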

[1] = dose: 12.5 mg/kg/injection, vehicle: distilled water + Tween-80
[2] = dose: 25.0 mg/kg/injection, vehicle: distilled water + Tween-80
[3] = dose: 0.5 mg/kg/injection, vehicle: water
[4] = dose: 1.0 mg/kg/injection, vehicle: water
[5] = dose: 2.0 mg/kg/injection, vehicle: water
[6] = dose: 25.0 mg/kg/injection, vehicle: saline with Tween-80
[7] = dose: 50.0 mg/kg/injection, vehicle: saline with Tween-80
[8] = dose: 100.0 mg/kg/injection, vehicle: saline with Tween-80
[9] = dose: 200.0 mg/kg/injection, vehicle: saline with Tween-80
[10] = dose: 400.0 mg/kg/injection, vehicle: saline with Tween-80

Measured: T/C

CCOC(=O)c1ccc(NN=NCCF)cc1
inactive: dose: 3.0 mg/kg/injection, vehicle: distilled water + alcohol 98 % of control | dose: 3.12 mg/kg/injection, vehicle: distilled water + Tween-80 104 % of control | dose: 6.0 mg/kg/injection, vehicle: distilled water + alcohol 96 % of control | dose: 6.25 mg/kg/injection, vehicle: distilled water + Tween-80 113 % of control | [1] 98 % of control | dose: 12.5 mg/kg/injection, vehicle: distilled water + alcohol 103 % of control | [2] 113 % of control | dose: 25.0 mg/kg/injection, vehicle: distilled water + alcohol 101 % of control | dose: 50.0 mg/kg/injection, vehicle: distilled water + alcohol 98 % of control | dose: 100.0 mg/kg/injection, vehicle: distilled water + alcohol 98 % of control

CCCCNC(C)[C@]1(O)Cc2c(O)c3c(c(O)c2[C@@H](OC2CC(N)C(O)C(C)O2)C1)C(=O)c1c(OC)cccc1C3=O (stereo partly drawn)
inactive: dose: 0.62 mg/kg/injection, vehicle: water 107 % of control | dose: 1.25 mg/kg/injection, vehicle: water 114 % of control | dose: 2.5 mg/kg/injection, vehicle: water 103 % of control | dose: 5.0 mg/kg/injection, vehicle: water 115 % of control

CN1CCN(c2ccc([N+](=O)[O-])c3no[n+]([O-])c23)CC1
inactive: dose: 5.0 mg/kg/injection, vehicle: saline with Tween-80 120 % of control | dose: 10.0 mg/kg/injection, vehicle: saline with Tween-80 111 % of control

CCOC(OCC)C(=O)OCC(=O)[C@]1(O)Cc2c(O)c3c(c(O)c2[C@@H](OC2CC(N)C(O)C(C)O2)C1)C(=O)c1c(OC)cccc1C3=O (stereo partly drawn)
inactive: dose: 0.13 mg/kg/injection, vehicle: water 113 % of control | [3] 116 % of control | [4] 112 % of control | [5] 120 % of control

Cc1[nH]ccc(=O)c1O
inactive: dose: 16.0 mg/kg/injection, vehicle: saline with Tween-80 87 % of control | dose: 32.0 mg/kg/injection, vehicle: saline with Tween-80 95 % of control | dose: 64.0 mg/kg/injection, vehicle: saline with Tween-80 101 % of control | dose: 128.0 mg/kg/injection, vehicle: saline with Tween-80 108 % of control | dose: 256.0 mg/kg/injection, vehicle: saline with Tween-80 99 % of control

NC(=S)N/N=C\c1ncccc1OCc1cccc(N)c1
inactive: [1] 103 % of control | [2] 109 % of control | dose: 50.0 mg/kg/injection, vehicle: distilled water + Tween-80 109 % of control | dose: 100.0 mg/kg/injection, vehicle: distilled water + Tween-80 102 % of control | dose: 200.0 mg/kg/injection, vehicle: distilled water + Tween-80 121 % of control

C[n+]1c(-c2cccc(OCCOCCOc3cccc(-c4c5cc(N)ccc5c5ccc(N)cc5[n+]4C)c3)c2)c2cc(N)ccc2c2ccc(N)cc21
inactive: [3] 105 % of control | dose: 0.75 mg/kg/injection, vehicle: saline with Tween-80 103 % of control | [4] 96 % of control | dose: 1.5 mg/kg/injection, vehicle: saline with Tween-80 102 % of control | [5] 100 % of control | dose: 3.0 mg/kg/injection, vehicle: saline with Tween-80 99 % of control | dose: 4.0 mg/kg/injection, vehicle: water 100 % of control and 105 % of control | dose: 6.0 mg/kg/injection, vehicle: saline with Tween-80 108 % of control | dose: 8.0 mg/kg/injection, vehicle: water 105 % of control and 110 % of control | dose: 16.0 mg/kg/injection, vehicle: water 116 % of control

OC1(CSc2ccccc2)CCCCC1
inactive: dose: 12.5 mg/kg/injection, vehicle: saline with Tween-80 95 % of control and 119 % of control | [6] 107 % of control | [7] 94 % of control and 114 % of control | [8] 103 % of control and 106 % of control | [9] 100 % of control and 105 % of control | [10] 108 % of control and 110 % of control

O=[Te]=O
inactive: dose: 3.0 mg/kg/injection, vehicle: suspension in saline 121 % of control | dose: 3.12 mg/kg/injection, vehicle: saline 102 % of control | dose: 6.0 mg/kg/injection, vehicle: suspension in saline 101 % of control | dose: 6.25 mg/kg/injection, vehicle: saline 100 % of control | dose: 12.0 mg/kg/injection, vehicle: suspension in saline 101 % of control | dose: 12.5 mg/kg/injection, vehicle: saline 106 % of control | dose: 24.0 mg/kg/injection, vehicle: suspension in saline 106 % of control | dose: 48.0 mg/kg/injection, vehicle: suspension in saline 115 % of control

Nc1nc(-c2ccccc2)c(Br)c(=O)[nH]1
inactive: [6] 114 % of control | [7] 107 % of control | [8] 110 % of control | [9] 92 % of control and 121 % of control | [10] 100 % of control and 118 % of control | dose: 800.0 mg/kg/injection, vehicle: saline with Tween-80 100 % of control

C/C(=N\N=C(/[Se])N1CC2CCC(CC2)C1)c1ccccn1
inactive: dose: 1.5 mg/kg/injection, vehicle: Klucel (hydroxypropylcellulose) (HPC) 106 % of control | dose: 3.0 mg/kg/injection, vehicle: Klucel (hydroxypropylcellulose) (HPC) 103 % of control | dose: 6.25 mg/kg/injection, vehicle: Klucel (hydroxypropylcellulose) (HPC) 110 % of control

CCC(=O)Sc1ccccc1C(=O)Nc1ccc(Cl)cc1
inactive: [6] 94 % of control | [7] 100 % of control | [8] 107 % of control | [9] 89 % of control | [10] 105 % of control
